Test results published in patent US20190374468A1, “Liposomal Formulations for Allosteric AKT Inhibitors” (Merck Sharp & Dohme Corp., priority 2013, published 2019).

Assays:
[1] = Aqueous solubility of Compound B; assay type: physicochemical
[2] = Visual evaluation of Compound B in the presence of sulfate salts; assay type: physicochemical; settings: 1 mg/mL in pH 3.0 citrate buffer with 0.1-1.0 M (NH4)2SO4, 20° C.
Experimental: The behavior of Compound B in the presence of sulfate salts was further evaluated visually. Vials containing 1 mg/mL Compound B in pH 3.0 citrate buffer with 0.1 M, 0.25 M, 0.5 M, and 1.0 M, respectively, of (NH4)2SO4 were visually observed at 20° C. […] Solutions became increasingly more viscous with a white/opaque appearance with increasing amounts of ammonium sulfate.

- solubility ([1]; 0.1 M carbonate buffer, aqueous buffer, pH 8.6, 0.1M Carbonate): 0.7 µg/mL
- solubility ([1]; 0.1 M citrate buffer, aqueous buffer, pH 2.8, 0.1M Citrate): 10600 µg/mL
- solubility ([1]; 0.1 M citrate buffer, aqueous buffer, pH 3.9, 0.1M Citrate): 170 µg/mL
- solubility ([1]; 0.1 M citrate buffer, aqueous buffer, pH 5.0, 0.1M Citrate): 59 µg/mL
- solubility ([1]; 0.1 M phosphate buffer, aqueous buffer, pH 5.6, 0.1M Phosphate): 140 µg/mL
- solubility ([1]; 0.1 M phosphate buffer, aqueous buffer, pH 6.9, 0.1M Phosphate): 36 µg/mL
- solubility ([1]; simulated gastric fluid, pH 2.1, 0.01N HCl): 4230 µg/mL
- solubility ([1]; un-buffered aqueous medium, water, pH 4.1, Un-buffered): 7460 µg/mL
- time to flocculation after addition of ammonium sulfate [2]: < 30 min
SMILES: Cl.NC1(c2ccc(-c3nc4ccn5c(=O)[nH]nc5c4cc3-c3ccccc3)cc2)CCC1 [Compound B, 8-[4-(1-aminocyclobutyl)phenyl]-9-phenyl[1,2,4]triazolo[3,4-f]-1,6-naphthyridin-3-ol]
